pEC50, pIC50: −log10 of the molar value. Read-outs that look alike come from different tables or passages of the source.
Columns and labels:
[1] = tested on: TNFα production in LPS-stimulated human monocytes; test: Cot Monocyte TNFα Cell Based Assay; conditions: Homo sapiens, Monocyte, read-out: EC50 TNF
In short: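 5,000 cells/well; cmpd 1 h, 37 °C, 0.5% DMSO final; LPS 50 pg/ml, 4 h, 37 °C; media TNFα by HTRF sandwich (cryptate/XL665), RT overnight; % control vs unstimulated/stimulated wells.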

[2] = molecular target: T1, human Cot catalytic domain (30-397 amino acids) (Homo sapiens, UniProt P41279); test: High Throughput Cot Biochemical Assay (KinEASE TR-FRET); conditions: read-out: IC50 HTRF
T1 construct: Purified recombinant human Cot catalytic domain (30-397 amino acids) was purchased from Cama Biosciences; purchased Cama Biosciences (so in the source)
In short: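 First, purified human Cot (aa 30-397) at 5 nM phosphorylates an XL665-labeled STK3 peptide (1 μM) at 400 μM ATP, pH 7.0, 0.1% DMSO. Then a europium-conjugated phospho-specific antibody binds the product, giving the TR-FRET signal.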

[3] = TNFα in LPS-stimulated human monocytes
[4] = Cot biochemical HTRF (KinEASE TR-FRET) assay
[5] = LPS-stimulated human monocytes, TNFα TR-FRET
[6] = Cot KinEASE TR-FRET, 400 μM ATP

T1 sequence (P41279 30-397): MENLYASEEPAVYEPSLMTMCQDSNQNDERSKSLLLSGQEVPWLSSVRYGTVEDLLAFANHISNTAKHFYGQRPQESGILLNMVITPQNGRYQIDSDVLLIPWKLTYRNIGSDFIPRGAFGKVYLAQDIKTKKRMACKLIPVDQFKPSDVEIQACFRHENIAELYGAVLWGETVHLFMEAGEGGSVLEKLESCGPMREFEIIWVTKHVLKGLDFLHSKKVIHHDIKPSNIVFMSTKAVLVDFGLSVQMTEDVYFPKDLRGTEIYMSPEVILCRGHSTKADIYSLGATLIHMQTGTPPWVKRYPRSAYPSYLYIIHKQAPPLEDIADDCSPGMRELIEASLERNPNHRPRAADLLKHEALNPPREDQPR

Question: `Cc1cc(F)ccc1C(Nc1cc(Cl)c2ncc(C#N)c(Nc3ccc(F)c(Cl)c3)c2c1)c1cn(C2CCNCC2)nn1` (stereo not shown) [Example 884, 8-chloro-4-((3-chloro-4-fluorophenyl)amino)-6-(((4-fluoro-2-methylphenyl) (1-(piperidin-4-yl)-1H-1,2,3-triazol-4-yl)methyl)amino)quinoline-3-carbonitrile] was tested. Which pEC50 [1, 3] did it give?
Answer: 6.33

Question: And the pIC50 [2, 4]?
Answer: 7.96

Question: `CCN1CCC(n2cc(C(Nc3cc(Cl)c4ncc(C#N)c(Nc5ccc(F)c(Cl)c5)c4c3)c3ccc(F)cc3C)nn2)CC1` (stereo not shown) [Example 885, 8-chloro-4-((3-chloro-4-fluorophenyl)amino)-6-(((1-(1-ethylpiperidin-4-yl)-1H-1,2,3-triazol-4-yl)(4-fluoro-2-methylphenyl)methyl)amino) quinoline-3-carbonitrile] was tested. Which pEC50 [1, 3] did it give?
Answer: 6.54

Question: What about the pIC50 [2, 4] of the same compound?
Answer: 8.05

Question: What does the source list for `Cn1cnc(C(Nc2cc(Cl)c3ncc(C#N)c(Nc4ccc(F)c(Cl)c4)c3c2)c2ccc(F)cc2)c1` (stereo not shown) [Example 887, 8-chloro-4-((3-chloro-4-fluorophenyl)amino)-6-(((4-fluorophenyl)(1-methyl-1H-imidazol-4-yl)methyl)amino)quinoline-3-carbonitrile]?
Answer: pEC50 [1, 3]: 5.72; pIC50 [2, 4]: 7.15

Question: What does the source list for `CCN1CCC(n2cc(C(Nc3cc(Cl)c4ncc(C#N)c(Nc5ccc(F)c(Cl)c5)c4c3)c3cc(F)c(F)c(F)c3)nn2)CC1` (stereo not shown) [Example 889, 8-chloro-4-((3-chloro-4-fluorophenyl)amino)-6-(((1-(1-ethylpiperidin-4-yl)-1H-1,2,3-triazol-4-yl)(3,4,5-trifluorophenyl)methyl)amino) quinoline-3-carbonitrile]?
Answer: pEC50 [1, 3]: 6.44; pIC50 [2, 4]: 7.49

Question: `Cn1cnc(C(Nc2cc(Cl)c3ncc(C#N)c(Nc4ccc(F)c(Cl)c4)c3c2)c2ccc(Cl)cc2)c1` (stereo not shown) [Example 894, 8-chloro-4-((3-chloro-4-fluorophenyl)amino)-6-(((4-chlorophenyl)(1-methyl-1H-imidazol-4-yl)methyl)amino)quinoline-3-carbonitrile] was tested. Which pEC50 [1, 3] did it give?
Answer: 5.76

Question: What about the pIC50 [2, 4] of the same compound?
Answer: 6.77

Question: `Cn1cnc(C(Nc2cc(Cl)c3ncc(C#N)c(Nc4ccc(F)c(Cl)c4)c3c2)c2ccccc2)c1` (stereo not shown) [Example 895, 8-chloro-4-((3-chloro-4-fluorophenyl)amino)-6-(((1-methyl-1H-imidazol-4-yl)(phenyl)methyl)amino) quinoline-3-carbonitrile] was tested. Which pEC50 [1, 3] did it give?
Answer: 6.00

Question: And the pIC50 [2, 4]?
Answer: 7.25

Question: With `CCN1CCC(n2cc(C(Nc3cc(Cl)c4ncc(C#N)c(Nc5ccc(F)c(Cl)c5)c4c3)c3cccc(F)c3)nn2)CC1` (stereo not shown) [Example 907, 8-chloro-4-((3-chloro-4-fluorophenyl)amino)-6-(((1-(1-ethylpiperidin-4-yl)-1H-1,2,3-triazol-4-yl)(3-fluorophenyl)methyl)amino) quinoline-3-carbonitrile] as the compound, how does the pEC50 [1, 3] read?
Answer: 6.89

Question: What about the pIC50 [2, 4] of the same compound?
Answer: 8.30

Question: `CCN1CCC(n2cc([C@H](Nc3cc(Cl)c4ncc(C#N)c(Nc5ccc(F)c(Cl)c5)c4c3)c3ccccc3)nn2)CC1` [Example 918, (R)-8-chloro-4-((3-chloro-4-fluorophenyl)amino)-6-(((1-(1-ethylpiperidin-4-yl)-1H-1,2,3-yl)(phenyl)methyl)amino) quinoline-3-carbonitrile] was tested. Which pEC50 [1, 5] did it give?
Answer: 5.07

Question: What about the pIC50 [2, 6] of the same compound?
Answer: 6.71

Question: How did the pEC50 [1, 5] turn out when `[2H][C@](Nc1cc(Cl)c2ncc(C#N)c(N[C@H](CCOC)c3ccccc3)c2c1)(c1ccc(F)cc1)c1cn(C2CC2)nn1` [Example 925, 8-chloro-6-(((1-cyclopropyl-1H-1,2,3-triazol-4-yl)(4-fluorophenyl)methyl-d)amino)-4-(((R)-3-methoxy-1-phenylpropyl)amino)quinoline-3-carbonitrile] was run?
Answer: 6.73

Question: What about the pIC50 [2, 6] of the same compound?
Answer: 8.00

Question: `N#Cc1cnc2c(Cl)cc(N[C@@H](c3ccc(F)cc3)c3cn(C4CC4)nn3)cc2c1NCC12CC(C1)C2` [Example 927, (S)-4-((bicyclo[1.1.1]pentan-1-ylmethyl)amino)-8-chloro-6-(((1-cyclopropyl-1H-1,2,3-triazol-4-fluorophenyl)methyl)amino) quinoline-3-carbonitrile] was tested. Which pEC50 [1, 5] did it give?
Answer: 6.24

Question: And the pIC50 [2, 6]?
Answer: 7.47

Question: With `N#Cc1cnc2c(Cl)cc(N[C@H](c3cn(C4CC4)nn3)c3ccccc3Cl)cc2c1NCC12CC(C1)C2` [Example 928, (S)-4-((bicyclo[1.1.1]pentan-1-ylmethyl)amino)-8-chloro-6-(((2-chlorophenyl)(1-cyclopropyl-1H-1,2,3-triazol-4-yl)methyl)amino)quinoline-3-carbonitrile] as the compound, how does the pEC50 [1, 5] read?
Answer: 6.35

Question: What about the pIC50 [2, 6] of the same compound?
Answer: 7.17

Question: What does the source list for `[2H][C@](Nc1cc(Cl)c2ncc(C#N)c(NCC(C)(C)C)c2c1)(c1ccc(Cl)cc1)c1cn(C2CCN(C(C)(C)C)CC2)nn1` [Example 929, (S)-6-(((1-(1-(tert-butyl)piperidin-4-yl)-1H-1,2,3-triazol-4-yl)(4-chlorophenyl)methyl-d)amino)-8-chloro-4-(neopentylamino)quinoline-3-carbonitrile]?
Answer: pEC50 [1, 5]: 7.01; pIC50 [2, 6]: 8.15

Question: How did the pEC50 [1, 5] turn out when `[2H][C@@](Nc1cc(Br)c2ncc(C#N)c(N[C@H](CCC#N)c3ccccc3)c2c1)(c1cn(C2CC2)nn1)c1ccccc1Cl` [Example 930, 8-bromo-6-(((S)-(2-chlorophenyl)(1-cyclopropyl-1H-1,2,3-triazol-4-yl)methyl-d)amino)-4-(((R)-3-cyano-1-phenylpropyl)amino) quinoline-3-carbonitrile] was run?
Answer: 7.18

Question: What about the pIC50 [2, 6] of the same compound?
Answer: 8.30

Question: With `[2H][C@](Nc1cc(S(C)(=O)=O)c2ncc(C#N)c(NCC(C)(C)C)c2c1)(c1ccc(F)cc1)c1cn(C2CC2)nn1` [Example 931, (S)-6-(((1-cyclopropyl-1H-1,2,3-triazol-4-yl)(4-fluorophenyl)methyl-d)amino)-8-(methylsulfonyl)-4-(neopentylamino)quinoline-3-carbonitrile] as the compound, how does the pEC50 [1, 5] read?
Answer: 6.35

Question: What about the pIC50 [2, 6] of the same compound?
Answer: 7.57

Question: `[2H][C@](Nc1cc(Cl)c2ncc(C#N)c(Nc3cccc4ccccc34)c2c1)(c1ccc(F)cc1)c1cn(C2CC2)nn1` [Example 933, (S)-8-chloro-6-(((1-cyclopropyl-1H-1,2,3-triazol-4-yl)(4-fluorophenyl)methyl-d)amino)-4-(naphthalen-1-ylamino) quinoline-3-carbonitrile] was tested. Which pEC50 [1, 5] did it give?
Answer: ≤ 6.00

Question: And the pIC50 [2, 6]?
Answer: 6.50

Question: `[2H][C@](Nc1cc(Cl)c2ncc(C#N)c(Nc3cccc(Cl)c3C#N)c2c1)(c1ccc(F)cc1)c1cn(C2CC2)nn1` [Example 934, (S)-8-chloro-4-((3-chloro-2-cyanophenyl)amino)-6-(((1-cyclopropyl-1H-1,2,3-triazol-4-yl)(4-fluorophenyl)methyl-d)amino)quinoline-3-carbonitrile] was tested. Which pEC50 [1, 5] did it give?
Answer: ≤ 6.00

Question: And the pIC50 [2, 6]?
Answer: 6.43

Question: With `[2H][C@](Nc1cc(Cl)c2ncc(C#N)c(Nc3cccc(Cl)c3S(C)(=O)=O)c2c1)(c1ccc(F)cc1)c1cn(C2CC2)nn1` [Example 935, (S)-8-chloro-4-((3-chloro-2-(methylsulfonyl)phenyl)amino)-6-(((1-cyclopropyl-1H-1,2,3-triazol-4-yl)(4-fluorophenyl)methyl-d)amino)quinoline-3-carbonitrile] as the compound, how does the pEC50 [1, 5] read?
Answer: ≤ 6.00

Question: What about the pIC50 [2, 6] of the same compound?
Answer: ≤ 5.00

Question: How did the pEC50 [1, 5] turn out when `[2H][C@](Nc1cc(Cl)c2ncc(C#N)c(NCC(C)(C)C)c2c1)(c1ccc(Cl)cc1)c1cn(C2CC2)nn1` [Example 936, (S)-8-chloro-6-(((4-chlorophenyl)(1-cyclopropyl-1H-1,2,3-triazol-4-yl)methyl-d)amino)-4-(neopentylamino) quinoline-3-carbonitrile] was run?
Answer: 6.65

Question: What about the pIC50 [2, 6] of the same compound?
Answer: 7.92

Question: `[2H][C@](Nc1cc(Br)c2ncc(C#N)c(N[C@H](CCC#N)c3ccccc3)c2c1)(c1ccc(F)cc1)c1cn(C2CC2)nn1` [Example 937, 8-bromo-4-(((R)-3-cyano-1-phenylpropyl)amino)-6-(((S)-(1-cyclopropyl-1H-1,2,3-triazol-4-yl)(4-fluorophenyl)methyl-d)amino)quinoline-3-carbonitrile] was tested. Which pEC50 [1, 5] did it give?
Answer: 7.46

Question: What about the pIC50 [2, 6] of the same compound?
Answer: 8.52

Question: `[2H][C@](Nc1cc(Cl)c2ncc(C#N)c(N[C@H](CCC#N)c3ccccc3)c2c1)(c1ccc(F)cc1)c1cn(C2(C(F)(F)F)CC2)nn1` [Example 938, 8-chloro-4-(((R)-3-cyano-1-phenylpropyl)amino)-6-(((S)-(4-fluorophenyl)(1-(1-(trifluoromethyl)cyclopropyl)-1H-1,2,3-triazol-4-yl)methyl-d)amino)quinoline-3-carbonitrile] was tested. Which pEC50 [1, 5] did it give?
Answer: 7.15

Question: And the pIC50 [2, 6]?
Answer: 8.22

Question: With `[2H][C@@](Nc1cc(C(C)=O)c2ncc(C#N)c(N[C@H](CCC#N)c3ccccc3)c2c1)(c1cn(C2CC2)nn1)c1ccccc1Cl` [Example 939, 8-acetyl-6-(((S)-(2-chlorophenyl)(1-cyclopropyl-1H-1,2,3-triazol-4-yl)methyl-d)amino)-4-(((R)-3-cyano-1-phenylpropyl)amino) quinoline-3-carbonitrile] as the compound, how does the pEC50 [1, 5] read?
Answer: 7.04

Question: What about the pIC50 [2, 6] of the same compound?
Answer: 8.40

Question: `CC[C@@H](Nc1c(C#N)cnc2c(Br)cc(N[C@@H](c3cccc(-c4ncco4)c3)c3cn(C4CC4)nn3)cc12)c1ccccc1` [Example 940, 8-bromo-6-(((S)-(1-cyclopropyl-1H-1,2,3-triazol-4-yl)(3-(oxazol-2-yl)phenyl)methyl)amino)-4-(((R)-1-phenylpropyl)amino) quinoline-3-carbonitrile] was tested. Which pEC50 [1, 5] did it give?
Answer: 6.84

Question: What about the pIC50 [2, 6] of the same compound?
Answer: 8.40

Question: What does the source list for `CC[C@@H](Nc1c(C#N)cnc2c(C#N)cc(N[C@@H](c3cccc(-c4ncco4)c3)c3cn(C4CC4)nn3)cc12)c1ccccc1` [Example 941, 6-(((S)-(1-cyclopropyl-1H-1,2,3-triazol-4-yl) (3-(oxazol-2-yl)phenyl)methyl)amino)-4-(((R)-1-phenylpropyl)amino) quinoline-3,8-dicarbonitrile]?
Answer: pEC50 [1, 5]: 7.28; pIC50 [2, 6]: 9.00
